Data on three sequences can be found in paper PMC9462664, “Preparation and identification of anti-breast cancer cells peptides released from yak milk casein” (Frontiers in Nutrition, 2022).

No end group written: not given here.

Series [1] has as its system pepsin and trypsin. Kind of series: Stability against simulated gastrointestinal digestion. The series is classed as in vitro ADME. The note with it: peptide 5 mg/mL, pepsin pH 1.2, 37°C, 2 h, then trypsin pH 8, 37°C, enzyme:peptide 1:100 (w/w), RP-HPLC, new peaks digested vs undigested. How it is done: Stability of peptides against simulated gastrointestinal digestion was performed according to the method outlined previously with slight modification ([19]). Briefly, peptide solution (5 mg/mL) was digested by pepsin (pH 1.2, 37°C) for 2 h. Then the pH of the resulting solution was altered to eight with NaOH (1.0°M) to inactivate pepsin, and the peptides solution was further digested by trypsin (2 h, 37°C). Finally, trypsin was inactivated by a hot water bath (95°C, 10 min). The ratio of enzyme to peptide was 1:100 (w/w) in the two digesting processes. The digested and undigested samples were loaded into HPLC (1260 Infinity, Agilent, Santa Clara, CA, United States), respectively, to evaluate the stability of the peptides. […]

Series [2] has as its system MDA-MB-231 cells. The series is classed as cell-based. How it is done:
(§1) The culture medium of MDA-MB-231 and MCF7 cells were DMEM containing 10% FBS and 1% AAC. The culture medium of MCF10A was DMEM/F12 containing CT (100°ng/mL), EGF (20°ng/mL), HS (5%), hydrocortisone (0.5°μg/mL), and insulin (10°ug/mL). All the cells were incubated using an incubator (MCO-20AIC, SANYO, Japan) with 5% CO2 and 95% humidity at 37°C.
(§2) Cell activity inhibition was conducted using a CCK8 kit according to the procedure offered by the manufacturer. The trypsinized cells were transferred into the 96-well plate (8,000 cells/well) and cultured for 24 h, then they were incubated with PBS (Control), YMCH (250°μg/mL) or synthetic peptides (0, 62.5, 125, 250, 500, and 1,000°μg/mL) for 48 h or 24–72 h. The CCK8 agent (20°μL) was pipetted into the well followed by incubation (37 °C, 4 h). The absorbance of the medium was acquired at 450 nm using a microplate reader (Multiskan Spectrum, Thermo, Waltham, MA, United States). Finally, according to the below formulae, the cell viability and its inhibition rate were calculated.
(§3) Cellviability(%)=Absorbanceofmediumfromthetreatmentgroup/Absorbanceofmediumfromthecontrolgroup×100
(§4) Inhibitionrateofcellviability(%)=(1Absorbanceofmediumfromthetreatmentgroup/Absorbanceofmediumfromthecontrolgroup)×100

Series [3] concerns MCF7 cells. The series is classed as cell-based. How it is done: as §1, §2, §3, §4
For series [4], the system named is MDA-MB-231 cells. Put plainly: Cell cycle determination (PI, flow cytometry). It is filed as cell-based. The note with it: 500 μg/mL, 48 h. How it is done: (§5) Cell cycle determination was conducted using a cell cycle kit according to its instructions. Trypsinized cells (MDA-MB-231 or MCF7) were pipetted into the 6-well plate and cultured. When cells confluence reached 50%, peptides were added to the wells, and the treatment lasted 48 h. The cells were harvested and washed with PBS. After being fixed by cold 75% ethanol, cells were treated with RNase A followed by incubation with PI. Finally, the cell cycles of samples were measured by a BD flow cytometer (FACS101, Becton, Dickinson and Company, Franklin Lakes, NJ, United States).
(§6) FIGURE 6 TPVVVPPFL elicited cell arrest of mammary carcinoma cells. MCF7 cells were incubated with TPVVVPPFL for 48 h at the concentration of 250°μg/mL. MDA-MB-231 cells were incubated with TPVVVPPFL for 48 h at the concentration of 500°μg/mL. The cell cycle distributions were analyzed using flow cytometry after treatment with PI.

Series [5] deals with MCF7 cells. Put plainly: Cell cycle determination (PI, flow cytometry). It is filed as cell-based. Particulars: 250 μg/mL, 48 h. How it is done: as §5, §6
A general note: A flow cytometer gives signals particle by particle.

Series [6] relates to MDA-MB-231 cells. Kind of series: Cell apoptosis determination (Annexin V/PI, flow cytometry). The series is classed as cell-based. Particulars: 500 μg/mL, 48 h, Annexin-V and PI, mean ± SD. How it is done:
(§7) Cell apoptosis determination was conducted by Annexin V staining of externalized phosphatidylserine in apoptotic cells using a cell apoptosis kit. Then the proportion of the apoptotic cells was analyzed by a BD flow cytometry (FACS101, Becton, Dickinson and Company, Franklin Lakes, NJ, United States).
(§8) FIGURE 7 TPVVVPPFL induced morphology alteration (A) and apoptosis of mammary carcinoma cells (B). MCF7 and MDA-MB-231 cells were incubated with TPVVVPPFL for 48 h at the concentration of 250 and 500°μg/mL, respectively. The image of the two cells was acquired by the inverted microscope, and the apoptotic cells were measured using a flow cytometry after treatment with Annexin-V and PI.

Series [7] concerns MCF7 cells. The description is as above. It is filed as cell-based. Particulars: 250 μg/mL, 48 h, Annexin-V and PI, mean ± SD. How it is done:
as §7, §8

Take NQFLPYPY [NQFLPYPY]: the “stability against simulated gastrointestinal digestion” value (“stability” for short) in series [1] was “stable in the simulated digestion condition”.

The IC50 is the concentration at which inhibition is half-maximal. Low readings indicate greater potency in that assay, high ones weaker potency in that assay. For TPVVVPPFL [TPVVVPPFL], the IC50 in series [2] is 500 µg/mL; in series [3] it was 250 µg/mL. Besides, the cell cycle arrest result is reported as “S arrest” in series [4] and “G2/M arrest” in series [5]. In addition, the “stability” value in series [1] is “stable in the simulated digestion condition”. For the same sequence, the apoptosis rate in series [6] worked out at 35.11 ± 2.95%; in series [7], 48.37 ± 2.74%.

Take VAPFPEVFGK [VAPFPEVFGK]: in series [1], the “stability” value was “hydrolyzed”.
